In US12054464B1, “Methyl 4-((5-(3-fluorophenyl)-4-phenyl-4H-1,2,4-triazol-3-ylthio)methyl)benzoate as an antimicrobial compound” (KING FAISAL UNIVERSITY, priority 2023, dated 2024):

What was measured:
Aspergillus flavus = assay: agar plate disc-diffusion, antifungal activity by inhibition zone; assay type: cell-based
Experimental: (§1) The agar plate disc-diffusion method was applied. Sterilized filter papers (6 mm in diameter) were wetted with 10 μL of a solution of methyl 4-((5-(3-fluorophenyl)-4-phenyl-4H-1,2,4-triazol-3-ylthio)methyl)benzoate (III) to be tested, containing 10 mg/mL in DMSO, and the discs were allowed to air dry. The discs were then placed onto the surface of agar plates (nutrient agar for bacteria and Sabouraud's dextrose agar for fungi) seeded with the test organism. Each plate contained 15 mL of the agar medium, previously seeded with 0.2 mL of the broth culture of each organism pregrown for 18 hours. The plates were incubated at 37 °C for 48 hours, and 72 hours for fungi. The inhibition zones were measured in mm. Discs impregnated with DMSO were used as a control, and its inhibition zone was subtracted from the tested compound actual inhibition zone.

[1] = tested on: Chrysosporium keratinophilum; assay: as above; assay type: cell-based
Experimental: as §1

Bacillus Cereus = assay: agar plate disc-diffusion, antibacterial activity by inhibition zone; assay type: cell-based; conditions: Bacillus Cereus (Gram positive)
Experimental: as §1

Escherichia coli = assay: as above; assay type: cell-based; conditions: Escherichia coli (Gram negative)
Experimental: as §1

Staphylococcus aureus = assay: as above; assay type: cell-based; conditions: Staphylococcus aureus (Gram positive)
Experimental: as §1

Pseudomonas aeruginosa = assay: as above; assay type: cell-based; conditions: Pseudomonas aeruginosa (Gram negative)
Experimental: as §1

[2] = A = concentration of comp. = 10,000 μL
[3] = B = concentration of comp. = 30,000 μL
[4] = C = concentration of comp. = 50,000 μL

| SMILES | inhibition zone (Aspergillus flavus; [2]) [mm] | inhibition zone (Aspergillus flavus; [3]) [mm] | inhibition zone (Aspergillus flavus; [4]) [mm] | inhibition zone [1, 2] [mm] | inhibition zone [1, 3] [mm] | inhibition zone [1, 4] [mm] | inhibition zone (Bacillus Cereus; [2]) [mm] | inhibition zone (Bacillus Cereus; [3]) [mm] | inhibition zone (Bacillus Cereus; [4]) [mm] | inhibition zone (Escherichia coli; [2]) [mm] | inhibition zone (Escherichia coli; [3]) [mm] | inhibition zone (Escherichia coli; [4]) [mm] | inhibition zone (Staphylococcus aureus; [2]) [mm] | inhibition zone (Staphylococcus aureus; [3]) [mm] | inhibition zone (Staphylococcus aureus; [4]) [mm] | inhibition zone (Pseudomonas aeruginosa; [2]) [mm] | inhibition zone (Pseudomonas aeruginosa; [3]) [mm] | inhibition zone (Pseudomonas aeruginosa; [4]) [mm] | melting point [°C] |
| --- | --- | --- | --- | --- | --- | --- | --- | --- | --- | --- | --- | --- | --- | --- | --- | --- | --- | --- | --- |
| O=C(O)c1cn(C2CC2)c2cc(N3CCNCC3)c(F)cc2c1=O [Cip., ciprofloxacin, reference compound] | 29 | 30 | 42 | 29 | 30 | 53 | 29 | 30 | 42 | 30 | 39 | 60 | 43 | 44 | 53 | 29 | 30 | 53 | – |
| COC(=O)c1ccc(CSc2nnc(-c3cccc(F)c3)n2-c2ccccc2)cc1 [III, methyl 4-((5-(3-fluorophenyl)-4-phenyl-4H-1,2,4-triazol-3-ylthio)methyl)benzoate] | 19 | 24 | 34 | 28 | 30 | 49 | 28 | 29 | 40 | 29 | 38 | 54 | 14 | 20 | 23 | 24 | 33 | 40 | 185 to 186 |
